# Laboratory results as given in patent publication US10034854B2, “Pharmaceutical composition with improved bioavailability” (Hoffmann-La Roche Inc., priority 2013, dated 2018).
# Where two headings read alike, the source gives them in different places.
# Experiments:
# [1] = Caco-2 assay (permeability); assay type: in vitro ADME; settings: human
# Text: The permeability of the compound is not high as determined with the Caco-2 assay value of 0.8×10^−6 cm/s. The poor solubility and the targeted high doses/frequency of dosing for this series of compounds led to the categorization of Compound A as BCS class IV compound (poor solubility/poor permeability).
# [2] = Pharmacokinetics / bioavailability in monkeys; settings: IV, 1.25 mg/kg, fed
# [3] = Aqueous solubility of crystalline Compound A at physiological pHs; assay type: physicochemical
# [4] = Solubility in bio-relevant fluids (FaSSIF, FeSSIF); assay type: physicochemical; settings: thermodynamic from solid, 37° C.
# Method: Approximately 5 mg of Compound A as MBP was placed in 20 mL of 37° C. bio-relevant fluids (Fasted State Simulated Intestinal Fluid and Fed State Simulated Intestinal Fluid) and was filtered through a 0.2 μm filter over time. The filtrate was then analyzed by HPLC.
# [5] = Animal pharmacokinetics study of formulations (FIG. 3); settings: oral formulations
# [6] = Salt screening: solubility of various salts of Compound A; settings: for solubility: salts of Compound A, at the pH of the same line
# [7] = pH belonging to the solubility value of the salt
compound,measurement,setting,value
"COc1cc(C(=O)O)ccc1NC(=O)[C@@H]1N[C@@H](CC(C)(C)C)[C@](C#N)(c2ccc(Cl)cc2F)[C@H]1c1cccc(Cl)c1F [Compound A, 4-{[(2R,3S,4R,5S)-4-(4-Chloro-2-fluoro-phenyl)-3-(3-chloro-2-fluoro-phenyl)-4-cyano-5-(2,2-dimethyl-propyl)-pyrrolidine-2-carbonyl]-amino}-3-methoxy-benzoic acid]",Papp,[1],0.8 ×10⁻⁶ cm/s
same,% AUC Extrap,[2],0.7%
same,AUC/Dose,[2],10.3 µg·h/mL/mg/kg
same,solubility,"[3]; aqueous medium, aqueous buffer, crystalline form, physiological pHs (pH 1.5-7.0)",< 0.05 µg/mL
same,solubility,"[3]; pH 1.5, aqueous buffer, crystalline forms, in water at physiological pHs (pH1.5-8.0)",< 0.05 µg/mL
"COc1cc(C(=O)O)ccc1NC(=O)[C@@H]1N[C@@H](CC(C)(C)C)[C@](C#N)(c2ccc(Cl)cc2F)[C@H]1c1cccc(Cl)c1F [Crystalline Form, 4-{[(2R,3S,4R,5S)-4-(4-Chloro-2-fluoro-phenyl)-3-(3-chloro-2-fluoro-phenyl)-4-cyano-5-(2,2-dimethyl-propyl)-pyrrolidine-2-carbonyl]-amino}-3-methoxy-benzoic acid]",solubility,"[4]; Fasted State Simulated Intestinal Fluid (FaSSIF), FaSSIF",2 µg/mL
same,solubility,"[4]; Fed State Simulated Intestinal Fluid (FeSSIF), FeSSIF",3 µg/mL
CNC[C@H](O)[C@@H](O)[C@H](O)[C@H](O)CO [Meglamine],bioavailability (exposure) (in words),[5],not improved
same,aqueous solubility (in words),[6]; among the salts identified in salt screening,most improved aqueous solubility
same,pH,[6]; [7],7.8
same,solubility,[6],>1400 µg/mL
CS(=O)(=O)O [Methanesulfonic acid (Mesylate)],pH,[6],3.1
[K+] [Potassium],pH,[6]; [7],8.0
same,solubility,[6],0.5 µg/mL
Cc1ccc(S(=O)(=O)O)cc1 [p-Toluenesulfonic acid],pH,[6]; [7],2.7
same,solubility,[6],<0.02 µg/mL
Sodium,pH,[6]; [7],7.2
same,solubility,[6],0.7 µg/mL
